Assay results reported in ChEMBL document CHEMBL4507261, “Data for DCP probe A-192621” (2021).

What was measured:
[1] = target: GABA-A receptor; alpha-1/beta-2/gamma-2 (Homo sapiens) (UniProt P14867+P47870+P18507); assay: GABAA1 (h) (alpha1,beta2,gamma2) Eurofins-Cerep binding assay; assay type: protein-complex assay; set-up: ligand concentration 15 nM; details: filed as agonist, Compound concentration 10.0 uM
[2] = target: Delta-type opioid receptor (Homo sapiens) (UniProt P41143); assay: delta (DOP) (h) Eurofins-Cerep binding assay; set-up: ligand concentration 0.5 nM; details: filed as agonist, Compound concentration 10.0 uM
[3] = target: Mu-type opioid receptor (Homo sapiens) (UniProt P35372); assay: mu (MOP) (h) Eurofins-Cerep binding assay; details: filed as agonist, Compound concentration 10.0 uM
[4] = target: Sodium-dependent serotonin transporter (Homo sapiens) (UniProt P31645); assay: 5-HT transporter (h) Eurofins-Cerep binding assay; set-up: ligand concentration 2 nM; details: filed as antagonist, Compound concentration 10.0 uM
[5] = target: AP2-associated protein kinase 1 (Homo sapiens) (UniProt Q2M2I8); details: Compound concentration 1000.0 nM
[6] = test system: Tyrosine-protein kinase ABL1 (Homo sapiens), P00519 [T315I]; details: Compound concentration 1000.0 nM
[7] = target: Tyrosine-protein kinase ABL1 (Homo sapiens) (UniProt P00519); details: Compound concentration 1000.0 nM
[8] = target: Calcium/calmodulin-dependent protein kinase type II subunit alpha (Homo sapiens) (UniProt Q9UQM7); details: Compound concentration 1000.0 nM
[9] = target: Calcium/calmodulin-dependent protein kinase kinase 1 (Homo sapiens) (UniProt Q8N5S9); details: Compound concentration 1000.0 nM
[10] = target: Cyclin-dependent kinase 4 (Homo sapiens) (UniProt P11802); details: Compound concentration 1000.0 nM
[11] = target: Cyclin-dependent kinase-like 1 (Homo sapiens) (UniProt Q00532); details: Compound concentration 1000.0 nM
[12] = target: Dual specificity protein kinase CLK2 (Homo sapiens) (UniProt P49760); details: Compound concentration 1000.0 nM
[13] = target: Myotonin-protein kinase (Homo sapiens) (UniProt Q09013); details: Compound concentration 1000.0 nM
[14] = target: Serine/threonine-protein kinase 17A (Homo sapiens) (UniProt Q9UEE5); details: Compound concentration 1000.0 nM
[15] = target: Tyrosine-protein kinase Fes/Fps (Homo sapiens) (UniProt P07332); details: Compound concentration 1000.0 nM
[16] = target: Vascular endothelial growth factor receptor 1 (Homo sapiens) (UniProt P17948); details: Compound concentration 1000.0 nM
[17] = target: Receptor-type tyrosine-protein kinase FLT3 (Homo sapiens) (UniProt P36888); details: Compound concentration 1000.0 nM
[18] = target: Beta-adrenergic receptor kinase 1 (Homo sapiens) (UniProt P25098); details: Compound concentration 1000.0 nM
[19] = target: Serine/threonine-protein kinase ICK (Homo sapiens) (UniProt Q9UPZ9); details: Compound concentration 1000.0 nM
[20] = target: Insulin receptor-related protein (Homo sapiens) (UniProt P14616); details: Compound concentration 1000.0 nM
[21] = target: Mitogen-activated protein kinase 9 (Homo sapiens) (UniProt P45984); details: Compound concentration 1000.0 nM
[22] = target: Mitogen-activated protein kinase 10 (Homo sapiens) (UniProt P53779); details: Compound concentration 1000.0 nM
[23] = target: Mitogen-activated protein kinase kinase kinase 2 (Homo sapiens) (UniProt Q9Y2U5); details: Compound concentration 1000.0 nM
[24] = target: Mitogen-activated protein kinase kinase kinase kinase 5 (Homo sapiens) (UniProt Q9Y4K4); details: Compound concentration 1000.0 nM
[25] = target: Microtubule-associated serine/threonine-protein kinase 1 (Homo sapiens) (UniProt Q9Y2H9); details: Compound concentration 1000.0 nM
[26] = target: Serine/threonine-protein kinase MRCK alpha (Homo sapiens) (UniProt Q5VT25); details: Compound concentration 1000.0 nM
[27] = target: Serine/threonine-protein kinase 4 (Homo sapiens) (UniProt Q13043); details: Compound concentration 1000.0 nM
[28] = target: Muscle, skeletal receptor tyrosine-protein kinase (Homo sapiens) (UniProt O15146); details: Compound concentration 1000.0 nM
[29] = target: Myosin light chain kinase, smooth muscle (Homo sapiens) (UniProt Q15746); details: Compound concentration 1000.0 nM
[30] = target: Serine/threonine-protein kinase PAK 4 (Homo sapiens) (UniProt O96013); details: Compound concentration 1000.0 nM
[31] = target: Cyclin-dependent kinase 16 (Homo sapiens) (UniProt Q00536); details: Compound concentration 1000.0 nM
[32] = test system: Phosphatidylinositol 4,5-bisphosphate 3-kinase catalytic subunit alpha isoform (Homo sapiens), P42336 [H1047Y]; details: Compound concentration 1000.0 nM
[33] = target: Phosphatidylinositol 4,5-bisphosphate 3-kinase catalytic subunit beta isoform (Homo sapiens) (UniProt P42338); details: Compound concentration 1000.0 nM
[34] = target: Phosphatidylinositol 4,5-bisphosphate 3-kinase catalytic subunit gamma isoform (Homo sapiens) (UniProt P48736); details: Compound concentration 1000.0 nM
[35] = target: Serine/threonine-protein kinase pim-3 (Homo sapiens) (UniProt Q86V86); details: Compound concentration 1000.0 nM
[36] = target: cAMP-dependent protein kinase catalytic subunit beta (Homo sapiens) (UniProt P22694); details: Compound concentration 1000.0 nM
[37] = target: Protein kinase C eta type (Homo sapiens) (UniProt P24723); details: Compound concentration 1000.0 nM
[38] = target: Serine/threonine-protein kinase Sgk1 (Homo sapiens) (UniProt O00141); details: Compound concentration 1000.0 nM
[39] = target: Uncharacterized serine/threonine-protein kinase SBK3 (Homo sapiens) (UniProt P0C264); details: Compound concentration 1000.0 nM
[40] = target: NUAK family SNF1-like kinase 2 (Homo sapiens) (UniProt Q9H093); details: Compound concentration 1000.0 nM
[41] = target: SRSF protein kinase 1 (Homo sapiens) (UniProt Q96SB4); details: Compound concentration 1000.0 nM
[42] = target: Mitogen-activated protein kinase kinase kinase 7 (Homo sapiens) (UniProt O43318); details: Compound concentration 1000.0 nM
[43] = target: Phosphatidylinositol 3-kinase catalytic subunit type 3 (Homo sapiens) (UniProt Q8NEB9); details: Compound concentration 1000.0 nM
[44] = target: Serine/threonine-protein kinase 32B (Homo sapiens) (UniProt Q9NY57); details: Compound concentration 1000.0 nM

Sequence of Mitogen-activated protein kinase kinase kinase 7 (Homo sapiens) (O43318 whole entry): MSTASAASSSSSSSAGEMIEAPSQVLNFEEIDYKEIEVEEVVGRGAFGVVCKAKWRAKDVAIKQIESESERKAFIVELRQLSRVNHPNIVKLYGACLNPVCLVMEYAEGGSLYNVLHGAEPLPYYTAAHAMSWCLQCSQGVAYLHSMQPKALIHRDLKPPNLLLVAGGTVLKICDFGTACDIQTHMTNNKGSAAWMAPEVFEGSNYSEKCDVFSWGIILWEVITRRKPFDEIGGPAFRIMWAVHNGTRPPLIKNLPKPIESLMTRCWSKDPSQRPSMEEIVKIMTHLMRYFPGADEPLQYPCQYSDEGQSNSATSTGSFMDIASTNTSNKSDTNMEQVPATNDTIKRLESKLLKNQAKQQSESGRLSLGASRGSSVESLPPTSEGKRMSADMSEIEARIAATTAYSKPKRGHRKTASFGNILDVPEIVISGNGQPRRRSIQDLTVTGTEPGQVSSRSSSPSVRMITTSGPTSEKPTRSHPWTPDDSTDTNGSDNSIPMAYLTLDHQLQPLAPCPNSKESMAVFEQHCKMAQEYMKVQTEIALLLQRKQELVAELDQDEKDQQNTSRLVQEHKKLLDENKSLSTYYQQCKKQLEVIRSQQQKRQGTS
Sequence of Dual specificity protein kinase CLK2 (Homo sapiens) (P49760 whole entry, looked up): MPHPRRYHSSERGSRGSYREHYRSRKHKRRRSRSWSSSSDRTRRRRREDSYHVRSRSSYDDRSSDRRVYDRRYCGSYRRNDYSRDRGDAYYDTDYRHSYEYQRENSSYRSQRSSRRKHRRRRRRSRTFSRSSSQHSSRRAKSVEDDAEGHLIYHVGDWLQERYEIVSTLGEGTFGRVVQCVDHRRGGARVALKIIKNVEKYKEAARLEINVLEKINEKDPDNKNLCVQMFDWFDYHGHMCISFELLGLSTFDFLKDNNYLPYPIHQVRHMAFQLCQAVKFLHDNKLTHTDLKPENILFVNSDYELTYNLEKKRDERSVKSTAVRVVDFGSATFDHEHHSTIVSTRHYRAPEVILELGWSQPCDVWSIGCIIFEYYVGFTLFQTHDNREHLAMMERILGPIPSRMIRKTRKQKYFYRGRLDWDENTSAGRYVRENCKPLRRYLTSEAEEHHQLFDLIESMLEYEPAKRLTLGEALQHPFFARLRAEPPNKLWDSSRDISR
Sequence of Tyrosine-protein kinase Fes/Fps (Homo sapiens) (P07332 whole entry): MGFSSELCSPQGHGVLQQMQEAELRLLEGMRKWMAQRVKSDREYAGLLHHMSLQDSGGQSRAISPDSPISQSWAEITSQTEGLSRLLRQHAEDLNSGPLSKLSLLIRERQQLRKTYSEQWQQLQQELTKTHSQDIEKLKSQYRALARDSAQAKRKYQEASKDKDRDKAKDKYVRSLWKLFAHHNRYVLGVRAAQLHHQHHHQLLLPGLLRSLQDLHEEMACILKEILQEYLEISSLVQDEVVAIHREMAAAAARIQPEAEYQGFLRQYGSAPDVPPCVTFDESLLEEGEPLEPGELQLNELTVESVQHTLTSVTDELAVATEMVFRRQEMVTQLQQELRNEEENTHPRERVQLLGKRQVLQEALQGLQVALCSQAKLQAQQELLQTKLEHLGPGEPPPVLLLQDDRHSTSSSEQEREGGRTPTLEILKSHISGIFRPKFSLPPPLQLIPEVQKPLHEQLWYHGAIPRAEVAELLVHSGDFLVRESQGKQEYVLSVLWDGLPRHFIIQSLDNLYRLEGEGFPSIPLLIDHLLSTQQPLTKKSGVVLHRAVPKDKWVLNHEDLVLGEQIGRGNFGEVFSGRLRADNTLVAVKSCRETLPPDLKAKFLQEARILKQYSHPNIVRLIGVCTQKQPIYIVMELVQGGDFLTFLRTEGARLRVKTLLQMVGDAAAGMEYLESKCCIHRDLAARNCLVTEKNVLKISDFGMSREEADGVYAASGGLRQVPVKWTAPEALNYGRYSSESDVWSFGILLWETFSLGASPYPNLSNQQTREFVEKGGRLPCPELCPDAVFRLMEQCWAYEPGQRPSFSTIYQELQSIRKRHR
Sequence of Mitogen-activated protein kinase kinase kinase kinase 5 (Homo sapiens) (Q9Y4K4 whole entry, looked up): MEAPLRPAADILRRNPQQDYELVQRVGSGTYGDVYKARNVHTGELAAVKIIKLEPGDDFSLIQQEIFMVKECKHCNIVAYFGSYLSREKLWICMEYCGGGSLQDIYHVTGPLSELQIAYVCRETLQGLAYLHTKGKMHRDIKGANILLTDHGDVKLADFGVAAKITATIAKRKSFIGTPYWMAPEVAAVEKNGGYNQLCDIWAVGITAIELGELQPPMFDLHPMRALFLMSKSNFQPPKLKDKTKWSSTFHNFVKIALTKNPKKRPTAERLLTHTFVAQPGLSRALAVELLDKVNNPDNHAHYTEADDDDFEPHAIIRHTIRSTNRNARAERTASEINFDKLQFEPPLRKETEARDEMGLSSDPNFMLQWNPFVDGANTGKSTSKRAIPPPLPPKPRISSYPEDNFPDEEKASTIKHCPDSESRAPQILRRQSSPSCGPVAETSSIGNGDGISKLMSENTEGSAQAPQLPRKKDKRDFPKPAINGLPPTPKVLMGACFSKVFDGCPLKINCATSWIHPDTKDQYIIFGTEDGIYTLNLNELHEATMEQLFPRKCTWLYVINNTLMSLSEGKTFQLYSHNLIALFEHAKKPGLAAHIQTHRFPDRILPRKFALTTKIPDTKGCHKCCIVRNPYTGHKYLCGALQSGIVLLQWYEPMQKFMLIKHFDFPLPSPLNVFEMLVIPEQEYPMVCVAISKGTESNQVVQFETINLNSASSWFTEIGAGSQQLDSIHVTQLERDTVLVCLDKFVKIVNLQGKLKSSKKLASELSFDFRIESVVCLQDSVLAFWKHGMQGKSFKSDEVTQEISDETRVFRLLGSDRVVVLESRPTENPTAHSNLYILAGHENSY
Sequence of SRSF protein kinase 1 (Homo sapiens) (Q96SB4 whole entry): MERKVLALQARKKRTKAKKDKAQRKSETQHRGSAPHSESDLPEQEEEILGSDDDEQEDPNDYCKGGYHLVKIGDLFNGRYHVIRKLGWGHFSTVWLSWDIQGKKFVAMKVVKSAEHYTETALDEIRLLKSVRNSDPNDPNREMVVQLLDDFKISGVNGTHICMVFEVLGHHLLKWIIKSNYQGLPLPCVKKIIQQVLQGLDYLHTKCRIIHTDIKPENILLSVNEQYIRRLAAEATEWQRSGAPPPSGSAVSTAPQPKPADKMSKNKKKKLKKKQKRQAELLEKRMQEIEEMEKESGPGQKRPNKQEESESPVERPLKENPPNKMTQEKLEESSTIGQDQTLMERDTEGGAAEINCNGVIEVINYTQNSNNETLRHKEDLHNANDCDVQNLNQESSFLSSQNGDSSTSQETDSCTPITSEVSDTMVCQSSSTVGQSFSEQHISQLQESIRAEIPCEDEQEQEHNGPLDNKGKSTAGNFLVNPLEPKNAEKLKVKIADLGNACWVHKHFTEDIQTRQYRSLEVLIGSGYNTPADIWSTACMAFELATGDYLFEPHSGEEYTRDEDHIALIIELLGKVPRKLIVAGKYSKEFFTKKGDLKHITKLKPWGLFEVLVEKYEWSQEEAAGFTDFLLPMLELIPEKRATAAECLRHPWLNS
Sequence of Microtubule-associated serine/threonine-protein kinase 1 (Homo sapiens) (Q9Y2H9 whole entry, looked up): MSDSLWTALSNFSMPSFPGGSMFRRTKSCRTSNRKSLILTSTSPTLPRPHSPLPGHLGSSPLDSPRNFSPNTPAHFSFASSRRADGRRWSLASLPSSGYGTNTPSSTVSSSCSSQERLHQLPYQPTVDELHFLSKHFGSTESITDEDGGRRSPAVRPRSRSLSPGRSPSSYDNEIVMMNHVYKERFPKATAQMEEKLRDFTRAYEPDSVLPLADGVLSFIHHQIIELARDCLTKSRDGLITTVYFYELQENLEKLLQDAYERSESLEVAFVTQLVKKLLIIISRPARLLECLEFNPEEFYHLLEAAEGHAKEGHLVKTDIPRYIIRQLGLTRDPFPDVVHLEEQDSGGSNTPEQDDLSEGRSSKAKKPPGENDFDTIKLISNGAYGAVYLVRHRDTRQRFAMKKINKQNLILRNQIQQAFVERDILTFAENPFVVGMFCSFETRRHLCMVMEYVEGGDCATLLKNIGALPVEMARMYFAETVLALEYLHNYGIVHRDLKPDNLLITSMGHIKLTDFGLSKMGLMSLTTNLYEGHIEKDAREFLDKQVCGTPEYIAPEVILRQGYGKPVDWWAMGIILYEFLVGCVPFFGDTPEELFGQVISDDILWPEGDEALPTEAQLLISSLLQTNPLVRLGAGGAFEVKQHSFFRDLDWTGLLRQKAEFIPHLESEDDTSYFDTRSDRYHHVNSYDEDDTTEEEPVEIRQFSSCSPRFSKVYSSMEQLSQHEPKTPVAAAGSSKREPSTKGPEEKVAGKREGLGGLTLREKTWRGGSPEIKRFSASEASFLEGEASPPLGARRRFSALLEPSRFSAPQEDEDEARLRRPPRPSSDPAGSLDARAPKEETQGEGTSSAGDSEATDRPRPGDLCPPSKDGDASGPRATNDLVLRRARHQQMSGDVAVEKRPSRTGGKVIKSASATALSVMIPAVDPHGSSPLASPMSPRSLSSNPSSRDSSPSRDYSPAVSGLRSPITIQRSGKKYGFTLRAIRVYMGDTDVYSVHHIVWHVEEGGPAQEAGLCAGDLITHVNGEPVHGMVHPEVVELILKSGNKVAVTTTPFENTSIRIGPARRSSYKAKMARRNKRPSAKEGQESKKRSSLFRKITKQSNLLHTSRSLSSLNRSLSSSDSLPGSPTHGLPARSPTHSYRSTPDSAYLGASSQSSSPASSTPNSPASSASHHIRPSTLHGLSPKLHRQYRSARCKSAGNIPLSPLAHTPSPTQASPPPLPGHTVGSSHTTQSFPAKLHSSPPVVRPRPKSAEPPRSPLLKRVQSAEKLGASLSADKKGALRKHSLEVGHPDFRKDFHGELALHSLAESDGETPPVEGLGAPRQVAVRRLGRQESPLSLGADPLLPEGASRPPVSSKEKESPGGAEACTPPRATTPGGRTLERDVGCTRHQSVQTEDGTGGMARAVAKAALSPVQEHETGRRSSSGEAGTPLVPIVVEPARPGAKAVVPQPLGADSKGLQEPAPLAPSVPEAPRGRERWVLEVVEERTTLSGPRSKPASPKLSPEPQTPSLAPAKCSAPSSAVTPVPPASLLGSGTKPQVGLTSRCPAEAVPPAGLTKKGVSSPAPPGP

CCCOc1ccc([C@H]2[C@H](C(=O)O)[C@@H](c3ccc4c(c3)OCO4)CN2CC(=O)Nc2c(CC)cccc2CC)cc1 [A-192621]
% Inhibition of Control Specific Binding (Mean n=2) [1]: -34%
% Inhibition of Control Specific Binding (Mean n=2) [2]: 33.5%
% Inhibition of Control Specific Binding (Mean n=2) [3]: 8.3%
% Inhibition of Control Specific Binding (Mean n=2) [4]: -7.7%
residual activity [5]: 95%
residual activity [6]: 77%
residual activity [7]: 70%
residual activity [8]: 90%
residual activity [9]: 86%
residual activity [10]: 89%
residual activity [11]: 66%
residual activity [12]: 91%
residual activity [13]: 81%
residual activity [14]: 92%
residual activity [15]: 96%
residual activity [16]: 97%
residual activity [17]: 80%
residual activity [18]: 51%
residual activity [19]: 59%
residual activity [20]: 94%
residual activity [21]: 65%
residual activity [22]: 80%
residual activity [23]: 82%
residual activity [24]: 93%
residual activity [25]: 93%
residual activity [26]: 94%
residual activity [27]: 99%
residual activity [28]: 82%
residual activity [29]: 85%
residual activity [30]: 91%
residual activity [31]: 77%
residual activity [32]: 78%
residual activity [33]: 73%
residual activity [34]: 68%
residual activity [35]: 88%
residual activity [36]: 87%
residual activity [37]: 100%
residual activity [38]: 63%
residual activity [39]: 94%
residual activity [40]: 57%
residual activity [41]: 95%
residual activity [42]: 100%
residual activity [43]: 78%
residual activity [44]: 100%

CCCOc1ccc([C@@H]2[C@@H](C(=O)O)[C@H](c3ccc4c(c3)OCO4)CN2CC(=O)Nc2c(CC)cccc2CC)cc1 [A-1806262]
% Inhibition of Control Specific Binding (Mean n=2) [1]: -33.6%
% Inhibition of Control Specific Binding (Mean n=2) [2]: 23.5%
% Inhibition of Control Specific Binding (Mean n=2) [3]: 11.1%
% Inhibition of Control Specific Binding (Mean n=2) [4]: 5.2%
residual activity [5]: 90%
residual activity [6]: 82%
residual activity [7]: 88%
residual activity [8]: 100%
residual activity [9]: 81%
residual activity [10]: 96%
residual activity [11]: 77%
residual activity [12]: 100%
residual activity [13]: 86%
residual activity [14]: 92%
residual activity [15]: 97%
residual activity [16]: 94%
residual activity [17]: 71%
residual activity [18]: 89%
residual activity [19]: 100%
residual activity [20]: 100%
residual activity [21]: 80%
residual activity [22]: 95%
residual activity [23]: 100%
residual activity [24]: 95%
residual activity [25]: 100%
residual activity [26]: 90%
residual activity [27]: 95%
residual activity [28]: 97%
residual activity [29]: 100%
residual activity [30]: 91%
residual activity [31]: 89%
residual activity [32]: 100%
residual activity [33]: 92%
residual activity [34]: 73%
residual activity [35]: 95%
residual activity [36]: 100%
residual activity [37]: 100%
residual activity [38]: 75%
residual activity [39]: 85%
residual activity [40]: 73%
residual activity [41]: 94%
residual activity [42]: 97%
residual activity [43]: 88%
residual activity [44]: 100%
